# Experimental data from patent US10668127B2, “Method and composition for synchronizing time of insemination” (UNITED-AH II, LLC, priority 2009, dated 2020).
# Legend:
# [1] = test system: sows; assay: Ovulation detection by transrectal ultrasonography (Examples 1-7); assay type: in vivo, swine; details: for OV48 (%): 48 h after treatment, OG, LS means
# Description: Approximately 120 parity one to seven sows (30 sows within each treatment group) were used to obtain ovulation and reproductive tract data. All sows were of the same genotype (PIC C22). Following 16 to 24 days of lactation, sows were blocked by length of lactation and parity and randomly assigned to one of four treatments: 1) a placebo group, receiving a placebo gel at 96±2 hours post-weaning and a single AI 24 hours later, 2) triptorelin gel at 96±2 hours post-weaning and AI 18 to 20 hours later. 3) triptorelin gel at 96±2 hours post-weaning and AI 24 to 26 hours later, and 4) triptorelin gel at 96±2 hours post-weaning and AI 30 to 32 hours later. The placebo formulation was identical to the active formulation but without the hormone being present. All treatments were deposited into the anterior vagina within 2 cm of the cervix. Follicular development and ovulation was monitored via real time ultrasound at 24, 32, 40, 48, and 56 hours after treatment. Thirty (30) days after insemination, all sows were slaughtered and reproductive tracts obtained. Pregnancy rates and embryo survival were determined. Triptorelin was administered at 96 hours (±2 hr) post-weaning as a single 2 mL dose deposited approximately 1-2 cm posterior to the cervix with a modified artificial insemination catheter. Weaning of sows occurred between 10 a.m. and noon on Day (O). The timing of the insemination for each group of sows was given as directed in the protocol. Those sows scheduled to be inseminated 18 hours following administration of triptorelin were generally inseminated between 6:00 a.m. and 8:00 a.m. the following day, those sows scheduled to be inseminated 24 hours following administration of triptorelin were generally inseminated between noon and 2:00 p.m. the following day and those sows scheduled to be inseminated 30 hours following administration of triptorelin were generally inseminated between 6:00 p.m. and 8:00 p.m. the following day. The single insemination for each sow was performed as they were normally done at the farm. […] Ultrasonography was performed at 24 hr (±1.5 hour) after treatment on Day 5 and again at 8:00 p.m. (±1.5 hour) on Day 5. On Day 6 transrectal ultrasonography was performed at 4:00 a.m. (±1 hour), noon (±1 hr) and 8:00 p.m. (±1 hr) until ovulation was complete or until the 8:00 p.m. ultrasonography on Day 6 (the 56 hour mark from the animals treated at 96 hours post-weaning) whichever came first. An Aloka 500 ultrasound machine was used for this purpose, with a 7.5 MHz linear array transducer attached to a fixed-angle PVC stabilizing rod to facilitate insertion into the rectum. The transducer and PVC rod were coated with a gynecological lubricant and gently inserted into the rectum until the ovaries could be visualized, one at a time. The diameters of the three largest follicles were to be recorded (to the nearest 0.1 mm) at each scanning. A sow was declared to have ovulated when the number of large follicles 6.5 mm) fell to less than 3. […] For all analyses, the models contained the fixed effects of treatment (placebo controls inseminated 24 hours after treatment, triptorelin treated sows inseminated 18 hours after treatment, triptorelin treated sows inseminated 24 hours after treatment and triptorelin treated sows inseminated 30 hours after treatment) and replicate. The records for sow parity and lactation length were included as covariates. First order interaction of treatment and replicate was tested and removed when non-significant. […]
# [2] = test system: sows; assay: Pregnancy rate and litter size at slaughter 30 days after insemination (Examples 1-7); assay type: in vivo, swine; details: OG, LS means; for Pregnant (%): pregnant at slaughter of all sows allotted
# Description: Approximately 120 parity one to seven sows (30 sows within each treatment group) were used to obtain ovulation and reproductive tract data. All sows were of the same genotype (PIC C22). Following 16 to 24 days of lactation, sows were blocked by length of lactation and parity and randomly assigned to one of four treatments: 1) a placebo group, receiving a placebo gel at 96±2 hours post-weaning and a single AI 24 hours later, 2) triptorelin gel at 96±2 hours post-weaning and AI 18 to 20 hours later. 3) triptorelin gel at 96±2 hours post-weaning and AI 24 to 26 hours later, and 4) triptorelin gel at 96±2 hours post-weaning and AI 30 to 32 hours later. The placebo formulation was identical to the active formulation but without the hormone being present. All treatments were deposited into the anterior vagina within 2 cm of the cervix. Follicular development and ovulation was monitored via real time ultrasound at 24, 32, 40, 48, and 56 hours after treatment. Thirty (30) days after insemination, all sows were slaughtered and reproductive tracts obtained. Pregnancy rates and embryo survival were determined. Triptorelin was administered at 96 hours (±2 hr) post-weaning as a single 2 mL dose deposited approximately 1-2 cm posterior to the cervix with a modified artificial insemination catheter. Weaning of sows occurred between 10 a.m. and noon on Day (O). The timing of the insemination for each group of sows was given as directed in the protocol. Those sows scheduled to be inseminated 18 hours following administration of triptorelin were generally inseminated between 6:00 a.m. and 8:00 a.m. the following day, those sows scheduled to be inseminated 24 hours following administration of triptorelin were generally inseminated between noon and 2:00 p.m. the following day and those sows scheduled to be inseminated 30 hours following administration of triptorelin were generally inseminated between 6:00 p.m. and 8:00 p.m. the following day. The single insemination for each sow was performed as they were normally done at the farm. […] There was a tendency (p=0.09) for triptorelin treated sows inseminated at 18 hours (12.4 fetuses) and at 24 hours (11.8 fetuses) post treatment to have a higher number of healthy fetuses than triptorelin treated sows inseminated at 30 hours (8.6) post treatment and for vehicle treated sows inseminated at 24 hours (8.6) following treatment. […] For all analyses, the models contained the fixed effects of treatment (placebo controls inseminated 24 hours after treatment, triptorelin treated sows inseminated 18 hours after treatment, triptorelin treated sows inseminated 24 hours after treatment and triptorelin treated sows inseminated 30 hours after treatment) and replicate. The records for sow parity and lactation length were included as covariates. First order interaction of treatment and replicate was tested and removed when non-significant. Differences between treatments were tested on least squares means estimates using the T test at P<0.05.
smiles,measurement,setting,value
"CC(C)C[C@H](NC(=O)[C@@H](Cc1c[nH]c2ccccc12)NC(=O)[C@H](Cc1ccc(O)cc1)NC(=O)[C@H](CO)NC(=O)[C@H](Cc1c[nH]c2ccccc12)NC(=O)[C@H](Cc1c[nH]cn1)NC(=O)[C@@H]1CCC(=O)N1)C(=O)N[C@@H](CCCNC(=N)N)C(=O)N1CCC[C@H]1C(=O)NCC(N)=O [triptorelin, pGlu-His-Trp-Ser-Tyr-D-Trp-Leu-Arg-Pro-Gly-NH2]",sows ovulating during their most synchronous 24 hr period,"[1]; 120 to 144 hr after weaning, triptorelin treated sows",70-77%
same,OV48 (%),[1]; AI 18 h,74.0%
same,OV48 (%),[1]; AI 24 h,77.0%
same,OV48 (%),[1]; AI 30 h,76.8%
same,percentage of sows ovulating by 56 hours after treatment,[1]; average of triptorelin treated sows,80.4%
same,Number of Healthy Fetuses,[2]; AI 18 h,12.4
same,Number of Healthy Fetuses,[2]; AI 24 h,11.8
same,Number of Healthy Fetuses,[2]; AI 30 h,8.6
same,Pregnant (%),[2]; AI 18 h,74.4%
same,Pregnant (%),[2]; AI 24 h,68.1%
same,Pregnant (%),[2]; AI 30 h,62.3%
